From PubChem BioAssay (NCI) come the findings set out here.

Structures are written as SMILES. Values joined by “and” are separate entries in the source; they are usually repeats but may differ in a detail not shown here. Equal values may be shown once.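 Cultured in 96-well plates, cells were exposed to test compound for 48 hours across five concentrations. GI50 = concentration required for 50% inhibition of growth. TGI: total growth inhibition.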

What all share (test): inhibition of tumour cell growth, NCI panel, 48 h
Assay [1] relates to BT-549 breast.
For assay [2], the system named is CAKI-1 renal.
In assay [3] the test system is HCT-15 colon.
Assay [4] has as its system SK-MEL-2 melanoma.
Assay [5] has as its system SK-MEL-28 melanoma.
In assay [6] the test system is SNB-19 CNS.
The subject of assay [7] is SNB-75 CNS.
The test system of assay [8] is TK-10 renal.

For the compound `Cn1cc(C2=C(c3c4n(c5ccccc35)CCNC4)C(=O)NC2=O)c2ccccc21`, the GI50 in assay [1] is 16.7 µM; in assay [2], 5.85 µM; in assay [3] it was 5.71 µM; in assay [4], 8.03 µM; in assay [5], > 15.3 µM; in assay [6] it was > 22 µM. The GI50 in assay [7] was 1.04 µM; in assay [8] it was 11.3 µM. The TGI was > 25 µM in assay [1]; > 22.3 µM in assay [2]; > 25 µM in assay [3]; > 21.3 µM in assay [4]; > 25 µM in assay [5]; > 25 µM in assay [6]. In addition, the TGI was 12 µM in assay [7] and > 25 µM in assay [8].

As to `CN1CCN(Cc2ccc(NC(=O)c3cncc(C#Cc4c(N)ncc5ccc(C#N)cc45)c3)cc2C(F)(F)F)CC1`, the GI50 in assay [1] is 6.46 µM; in assay [2], 0.943 µM; in assay [3], 0.827 µM; in assay [4], 2.44 µM; in assay [5], 0.35 µM; in assay [6], 0.952 µM. The GI50 in assay [7] was 2.29 µM; in assay [8], 0.969 µM. Besides, the TGI in assay [1] was 14.8 µM; in assay [2], 1.93 µM; in assay [3], 1.72 µM; in assay [4], 9.56 µM; in assay [5] it was 1.1 µM; in assay [6], 1.79 µM. Further, the TGI in assay [7] worked out at 4.54 µM; in assay [8], 1.87 µM.

Turning to `Oc1cc(N2CC2)c(O)cc1N1CC1`, the GI50 in assay [1] was 1.84 µM; in assay [2], 0.086 µM; in assay [3], 0.727 µM; in assay [4], 1.46 µM; in assay [5] it was 1.71 µM; in assay [6], 1.78 µM. Further, the GI50 in assay [7] was 1.14 µM; in assay [8], 1.27 µM. Also, the TGI worked out at 5.96 µM in assay [1]; 0.332 µM in assay [2]; 10.4 µM in assay [3]; 4.55 µM in assay [4]; 4.2 µM in assay [5]; 13.5 µM in assay [6]. Further, the TGI in assay [7] stood at 2.6 µM; in assay [8] it was 9.35 µM.

`C[C@@H](N)COc1ccc(-c2cnc3ccc(N[C@H](C)c4cccc(F)c4)nn23)cc1`: the GI50 is 1.68 µM in assay [1]; 2.87 µM in assay [2]; 2.32 µM in assay [3]; 1.99 µM in assay [4]; 1.64 µM in assay [5]; 3 µM in assay [6]. Further, the values for the GI50 in assay [7] and in assay [8] were 5.15 µM and 1.75 µM, respectively. Also, the TGI came to 3.33 µM in assay [1]; 11 µM in assay [2]; 10.1 µM in assay [3]; 4.48 µM in assay [4]; 3.07 µM in assay [5]; 11.6 µM in assay [6]. Further, the TGI is 20.6 µM in assay [7] and 8.22 µM in assay [8].

As for `NC(=O)c1cccc2c(N[C@H](CN3CCC3)c3ccc(Cl)c(C(F)(F)F)c3)ncnc12`, the GI50 in assay [1] was 0.657 µM; in assay [2] it was 0.232 µM; in assay [3] it was 0.947 µM; in assay [4], 1.96 µM; in assay [5], 1.18 µM; in assay [6], 1.19 µM. Further, the values for the GI50 in assay [7] and in assay [8] were 0.0506 µM and 0.156 µM, respectively. The TGI in assay [1] was found to be 3.61 µM; in assay [2] it was 3.39 µM; in assay [3], 10.7 µM; in assay [4] it was 9.74 µM; in assay [5] it was 4.13 µM; in assay [6] it was 11.4 µM. Also, the TGI was determined as 0.918 µM in assay [7] and 3.34 µM in assay [8].

Consider `CS(=O)(=O)CCNCc1ccc(-c2ccc3ncnc(Nc4ccc(OCc5cccc(F)c5)c(Cl)c4)c3c2)o1`, for which the GI50 in assay [1] was > 10 µM and 19.7 µM and 7.43 µM; in assay [3], 4.97 µM and 3.63 µM and 3.54 µM; in assay [4] it was > 10 µM and 2.46 µM and 5.9 µM; in assay [5], > 10 µM and 4.37 µM and 3.35 µM; in assay [6], > 10 µM and 99.6 µM and 17.7 µM; in assay [7] it was > 10 µM and 4.33 µM and 8.75 µM. Moreover, the GI50 in assay [8] is 0.17 µM and 0.176 µM and 0.0385 µM. The TGI is > 10 µM and > 47.5 µM and 44.7 µM in assay [1]; > 10 µM and > 25 µM and 27.7 µM in assay [2]; > 10 µM and > 100 µM and 27.6 µM in assay [3]; > 10 µM and 8.59 µM and 23.1 µM in assay [4]; > 10 µM and 16.5 µM and 18.9 µM in assay [5]; > 10 µM and > 100 µM and 66.7 µM in assay [6]. Further, the TGI in assay [7] is > 10 µM and 35.5 µM and 44.2 µM; in assay [8], > 10 µM and > 100 µM and 11.2 µM.

Consider `CC1(C)CC(=O)C=C(/C=C/Sc2c(Cl)c(Cl)nc(Cl)c2Cl)C1`, for which the GI50 in assay [1] is 5.87 µM; in assay [2], 2.23 µM; in assay [3], 5.64 µM; in assay [4], 70.2 µM; in assay [5], 15.5 µM; in assay [6] it was 15.9 µM. Besides, the GI50 is 15.9 µM in assay [7] and 19.6 µM in assay [8]. The TGI in assay [1] was 22.3 µM; in assay [2] it was 5.4 µM; in assay [3], 23 µM; in assay [4], > 100 µM; in assay [5], 31.9 µM; in assay [6], 29.5 µM. Besides, the TGI in assay [7] came out at 31.5 µM; in assay [8], 35.5 µM.
